From patent publication US4201725A, “Secondary amines” (priority 1974, dated 1980)

What was measured:
[1] = system: reserpine-induced catatonia; assay: Inhibition of reserpine-induced catatonia (preventive, oral compound 30 min before reserpine); type: in vivo, rat (male, OFA strain)
Protocol: After sufficient doses of reserpine have been administered to the rat, a series of symptoms occur, more particularly ptosis, catatonia and a drop in central temperature. These symptoms are caused by the depletion of the intragranular reserve pool of biogenetic amines at the synaptic terminals.
An oral dose of the compound to be studied in aqueous solution was administered to batches of 10 male rats of the OFA strain weighing about 150 to 200 g. Thirty minutes later a dose of 5 mg/kg of reserpine was given by intraperitoneal route. Three hours after the injection of reserpine, the animals were suspended by the four paws to a horizontally stretched wire fixed at 15 cm from the ground. The catatonia animals were those which maintained the position so given for at least 30 seconds. […] The maximum score was therefore 10 per batch. An identical trial was undertaken with control animals which received reserpine but none of the compounds being studied.

in vivo = conditions: mouse, po
[2] = system: neuroleptic-induced catatonia; assay: Inhibition of neuroleptic (prochlorperazine)-induced catatonia (preventive); type: in vivo, rat (male, OFA strain); conditions: for activity relative to amantadine, neuroleptic-induced catatonia: times more active than amantadine
Protocol: The blocking of dopaminergic receptors by neuroleptics in the extra-pyramidal system induces catatonia in the rat. Catatonia is differentiated from sedative properties by means of the test used hereabove for reserpine-induced catatonia. The same system of scoring was also employed in the present case.
An oral dose of the compound to be studied in aqueous solution was administered to batches of 10 male rats of the OFA strain weighing about 150 to 200 g.
Three hours after the injection of this latter compound, catatonia was measured. An identical trial was also carried out with control animals which received prochlorperazine but none of the compounds under study.
The scoring system used was that given hereabove for Table I.

Tremor-inducing action = conditions: 0.031 m mol/kg oral, 30 min, hydrochloride form

SMILES: CC=NC(CCC)(CCC)CCC [Compound 42, N-Ethylidene-1,1-di-n-propyl-n-butylamine]
- Inhibition of reserpine-induced catatonia ([1]; 6 mg/kg oral): 4 (represents 100% inhibition of catatonia in comparison with the controls)
- selectivity ratio (in vivo): 20
- Inhibition of the neuroleptic-induced catatonia ([2]; 6 mg/kg oral): 2 (represents 50% inhibition of catatonia in comparison with the controls)

SMILES: C#CCN(CC#C)C(CCC)(CCC)CCC [Compound 39, N,N-Dipropargyl-1,1-di-n-propyl-n-butylamine]
- Inhibition of reserpine-induced catatonia ([1]; 15 mg/kg oral): 2 (represents 50% inhibition of catatonia in comparison with the controls)

SMILES: CCCCCC(C)(N)CCC (stereo not shown) [Compound 9, 1-Methyl-1-n-propyl-n-hexylamine]
- selectivity ratio (in vivo): 87

SMILES: CCCC(CCC)(CCC)NC(C)C [Compound 34, N-Isopropyl-1,1-di-n-propyl-n-butylamine]
- Inhibition of reserpine-induced catatonia ([1]; 6.5 mg/kg oral): 2 (represents 50% inhibition of catatonia in comparison with the controls)
- Inhibition of reserpine-induced catatonia ([1]; 13 mg/kg oral): 4 (represents 100% inhibition of catatonia in comparison with the controls)
- selectivity ratio (in vivo): 21.6
- Inhibition of the neuroleptic-induced catatonia ([2]; 3 mg/kg oral): 2 (represents 50% inhibition of catatonia in comparison with the controls)
- Inhibition of the neuroleptic-induced catatonia ([2]; 6.5 mg/kg oral): 4 (represents 100% inhibition of catatonia in comparison with the controls)

SMILES: CCCCC(C)CC(C)(C)N (stereo not shown) [Compound 13, 1,1,3-Trimethyl-n-heptylamine]
- Inhibition of reserpine-induced catatonia ([1]; 25 mg/kg oral): 1 (represents 20 to 30% inhibition of catatonia in comparison with the controls)
- Inhibition of the neuroleptic-induced catatonia ([2]; 50 mg/kg oral): 1 (represents 20 to 30% inhibition of catatonia in comparison with the controls)

SMILES: CCCC(CCC)(CC(C)C)N(C)C [Compound 37, N,N-Dimethyl-1-n-propyl-1-isobutyl-n-butylamine]
- Inhibition of reserpine-induced catatonia ([1]; 6.5 mg/kg oral): 3 (represents 70 to 80% inhibition of catatonia in comparison with the controls)
- Inhibition of the neuroleptic-induced catatonia ([2]; 6.5 mg/kg oral): 2 (represents 50% inhibition of catatonia in comparison with the controls)

SMILES: CCCC(N)(CCC)CC(C)C [Compound 19, 1-n-Propyl-1-isobutyl-n-butylamine]
- Inhibition of reserpine-induced catatonia ([1]; 6 mg/kg oral): 3 (represents 70 to 80% inhibition of catatonia in comparison with the controls)
- Inhibition of the neuroleptic-induced catatonia ([2]; 6 mg/kg oral): 3 (represents 70 to 80% inhibition of catatonia in comparison with the controls)

SMILES: CCCC(CCC)(CCC)NCCCO [Compound 45, N-(3-Hydroxy-n-propyl)-1,1-di-n-propyl-n-butylamine]
- Inhibition of reserpine-induced catatonia ([1]; 14 mg/kg oral): 2 (represents 50% inhibition of catatonia in comparison with the controls)
- Inhibition of the neuroleptic-induced catatonia ([2]; 7 mg/kg oral): 2 (represents 50% inhibition of catatonia in comparison with the controls)

SMILES: C=CCNC(CCC)(CCC)CCC [Compound 35, N-Allyl-1,1-di-n-propyl-n-butylamine]
- Inhibition of reserpine-induced catatonia ([1]; 6 mg/kg oral): 2 (represents 50% inhibition of catatonia in comparison with the controls)
- selectivity ratio (in vivo): 21
- Inhibition of the neuroleptic-induced catatonia ([2]; 6 mg/kg oral): 4 (represents 100% inhibition of catatonia in comparison with the controls)

SMILES: CCCC(CCC)(CCC)N(C)CC [Compound 38, N-Methyl-N-ethyl-1,1-di-n-propyl-n-butylamine]
- Inhibition of reserpine-induced catatonia ([1]; 6.5 mg/kg oral): 2 (represents 50% inhibition of catatonia in comparison with the controls)
- Inhibition of the neuroleptic-induced catatonia ([2]; 6.5 mg/kg oral): 2 (represents 50% inhibition of catatonia in comparison with the controls)

SMILES: CCCC(CCC)(CCC)NCCO [Compound 43, N-(2-Hydroxyethyl)-1,1-di-n-propyl-n-butylamine]
- Inhibition of reserpine-induced catatonia ([1]; 13 mg/kg oral): 3 (represents 70 to 80% inhibition of catatonia in comparison with the controls)
- selectivity ratio (in vivo): 23
- Inhibition of the neuroleptic-induced catatonia ([2]; 6.5 mg/kg oral): 1 (represents 20 to 30% inhibition of catatonia in comparison with the controls)

SMILES: CCCC(CCC)(CCC)N1CC1 [Compound 40, N,N-Ethylene-1,1-di-n-propyl-n-butylamine]
- Inhibition of reserpine-induced catatonia ([1]; 6 mg/kg oral): 2 (represents 50% inhibition of catatonia in comparison with the controls)
- selectivity ratio (in vivo): > 25
- Inhibition of the neuroleptic-induced catatonia ([2]; 6 mg/kg oral): 1 (represents 20 to 30% inhibition of catatonia in comparison with the controls)
- Inhibition of the neuroleptic-induced catatonia ([2]; 12 mg/kg oral): 3 (represents 70 to 80% inhibition of catatonia in comparison with the controls)

SMILES: C=CCC(CCC)(CCC)NC [Compound 32, N-Methyl-1-n-propyl-1-allyl-n-butylamine]
- number of animals presenting tremors (denominator of ratio) (Tremor-inducing action; batches of 10 rats): 0
- ratio of index of reserpine-induced catatonia inhibition to number of animals presenting tremors (Tremor-inducing action): 3/0
- Inhibition of reserpine-induced catatonia ([1]; 5 mg/kg oral): 2 (represents 50% inhibition of catatonia in comparison with the controls)
- index of reserpine-induced catatonia (numerator of ratio) ([1]; 0.031 m mol/kg oral, hydrochloride form): 3 (represents 70 to 80% inhibition of catatonia in comparison with the controls)
- Inhibition of the neuroleptic-induced catatonia ([2]; 5 mg/kg oral): 2 (represents 50% inhibition of catatonia in comparison with the controls)

SMILES: CCCC(CCC)(CCC)N1CCOCC1 [Compound 46, N,N-(3-Oxapentamethylene)-1,1-di-n-propyl-n-butylamine]
- Inhibition of reserpine-induced catatonia ([1]; 8 mg/kg oral): 1 (represents 20 to 30% inhibition of catatonia in comparison with the controls)
- selectivity ratio (in vivo): 31
- Inhibition of the neuroleptic-induced catatonia ([2]; 8 mg/kg oral): 2 (represents 50% inhibition of catatonia in comparison with the controls)

SMILES: C=NC(CCC)(CCC)CCC [Compound 41, N-Methylene-1,1-di-n-propyl-n-butylamine]
- Inhibition of reserpine-induced catatonia ([1]; 5.5 mg/kg oral): 4 (represents 100% inhibition of catatonia in comparison with the controls)
- selectivity ratio (in vivo): 27
- Inhibition of the neuroleptic-induced catatonia ([2]; 5.5 mg/kg oral): 3 (represents 70 to 80% inhibition of catatonia in comparison with the controls)

SMILES: CCCNC(CCC)(CCC)CCC [Compound 47, N-n-propyl-1,1-di-n-propyl-n-butylamine]
- Inhibition of the neuroleptic-induced catatonia ([2]; 6.5 mg/kg oral): 2 (represents 50% inhibition of catatonia in comparison with the controls)

SMILES: CCCCC(C)(N)CC(C)C (stereo not shown) [Compound 8, 1-Methyl-1-isobutyl-n-pentylamine]
- activity relative to amantadine, neuroleptic-induced catatonia [2]: twice as active

SMILES: CCCC(CCC)(CCC)N1CCC1 [Compound 29, N,N-Trimethylene-1,1-di-n-propyl-n-butylamine]
- Inhibition of reserpine-induced catatonia ([1]; 3 mg/kg oral): 3 (represents 70 to 80% inhibition of catatonia in comparison with the controls)
- Inhibition of reserpine-induced catatonia ([1]; 6 mg/kg oral): 4 (represents 100% inhibition of catatonia in comparison with the controls)
- selectivity ratio (in vivo): 10.8
- Inhibition of the neuroleptic-induced catatonia ([2]; 3 mg/kg oral): 2 (represents 50% inhibition of catatonia in comparison with the controls)
- Inhibition of the neuroleptic-induced catatonia ([2]; 6 mg/kg oral): 4 (represents 100% inhibition of catatonia in comparison with the controls)

SMILES: CCCC(CCC)(CCC)N(C)C [Compound 28, N,N-Dimethyl-1,1-di-n-propyl-n-butylamine]
- Inhibition of reserpine-induced catatonia ([1]; 6 mg/kg oral): 4 (represents 100% inhibition of catatonia in comparison with the controls)
- Inhibition of the neuroleptic-induced catatonia ([2]; 3 mg/kg oral): 2 (represents 50% inhibition of catatonia in comparison with the controls)
- Inhibition of the neuroleptic-induced catatonia ([2]; 6 mg/kg oral): 4 (represents 100% inhibition of catatonia in comparison with the controls)

SMILES: CCCC(C)(N)CC(C)CC (stereo not shown) [Compound 6, 1,3-Dimethyl-1-n-propyl-n-pentylamine]
- selectivity ratio (in vivo): > 25

SMILES: CCCC(CCC)(CCC)NCC [Compound 33, N-Ethyl-1,1-di-n-propyl-n-butylamine]
- Inhibition of reserpine-induced catatonia ([1]; 6 mg/kg oral): 2 (represents 50% inhibition of catatonia in comparison with the controls)
- selectivity ratio (in vivo): 16.5
- Inhibition of the neuroleptic-induced catatonia ([2]; 6 mg/kg oral): 4 (represents 100% inhibition of catatonia in comparison with the controls)

SMILES: CCCC(CCC)(CC(C)C)NC [Compound 31, N-Methyl-1-n-propyl-1-isobutyl-n-butylamine]
- Inhibition of reserpine-induced catatonia ([1]; 6.5 mg/kg oral): 3 (represents 70 to 80% inhibition of catatonia in comparison with the controls)
- Inhibition of the neuroleptic-induced catatonia ([2]; 6.5 mg/kg oral): 4 (represents 100% inhibition of catatonia in comparison with the controls)

SMILES: CCCC(N)(CC)CC(C)C (stereo not shown) [Compound 3, 1-Ethyl-1-isobutyl-n-butylamine]
- Inhibition of the neuroleptic-induced catatonia ([2]; 20 mg/kg oral): 3 (represents 70 to 80% inhibition of catatonia in comparison with the controls)

SMILES: CCCC(N)(CC)CCC [Compound 2, 1-Ethyl-1-n-propyl-n-butylamine]
- selectivity ratio (in vivo): 30
- Inhibition of the neuroleptic-induced catatonia ([2]; 5 mg/kg oral): 1 (represents 20 to 30% inhibition of catatonia in comparison with the controls)

SMILES: CCCC(CCC)(CCC)N(CCO)CCO [Compound 44, N,N-bis-(2-Hydroxyethyl)-1,1-di-n-propyl-n-butylamine]
- Inhibition of reserpine-induced catatonia ([1]; 15 mg/kg oral): 1 (represents 20 to 30% inhibition of catatonia in comparison with the controls)
- Inhibition of the neuroleptic-induced catatonia ([2]; 15 mg/kg oral): 1 (represents 20 to 30% inhibition of catatonia in comparison with the controls)

SMILES: CCCC(N)(CCC)CC(C)C [Compound 5, 1-n-Propyl-1-isobutyl-n-butylamine]
- Inhibition of reserpine-induced catatonia ([1]; 20 mg/kg oral): 2 (represents 50% inhibition of catatonia in comparison with the controls)
- activity relative to amantadine, neuroleptic-induced catatonia [2]: five times more active
